Reference: patent US7759367B2, “Pharmaceutical compositions and their uses” (Eisai R&D Management Co., Ltd., priority 2001, dated 2010)
pIC50: −log10 of the molar value. Where two headings read alike, the source gives them in different places.

Assays:
Lewis rats = assay: Acute EAE in Lewis rats: Example 7 alone and combined with interferon-β (In Vivo Example 1); settings: Lewis rat acute EAE, Example 7 10 mg/kg p.o., interferon-β 1×10^6 Units/rat s.c., once daily 7-16 dpi
Procedure: Female Lewis rats (200+10 g) obtained from Charles River, Kent, UK, were housed in pairs under environmentally controlled conditions (6:00 a.m.-6:00 p.m. light/dark cycle; 22-24° C.; 45-55% humidity) and allowed free access to food and water. Experimental groups consisted of 8 animals.
Rats were immunised in each hind foot with 15 μl of inoculum containing […] guinea pig myelin basic protein (MBP, prepared by the method of Dunkley and Carnegie (1974); final concentration 2 mg/ml), emulsified in Freund's complete adjuvant (CFA; Sigma, UK) containing Mycobacterium tuberculosis H37Ra (final concentration 5.5 mg/ml; Difco Laboratories, UK).
Animals were weighed and monitored daily and clinical disease scored as (0) no clinical signs; (1) flaccid tail and weight loss; (2) hind limb hypotonia with further weight loss; (3) complete hind limb paralysis; (4) paraplegia and (5) death. […] During the period of compound administration (7-16 days post immunisation; dpi) animals were scored 15 h after injection of vehicle, compound of example 7 or interferon-β to avoid any acute effect of treatment on disease score.
3-(2-Cyanophenyl)-1-phenyl-5-(2-pyridyl)-1,2-dihydropyridin-2-one; (example 7) was suspended in 0.5% methyl cellulose (MC) solution to obtain a compound concentration of 4 mg/ml. Interferon-β was dissolved in PBS to obtain a compound concentration of 5×10^6 Units/ml. Rats were dosed once daily (9 a.m.) on days 7 to 16 post immunisation with either vehicle (methyl cellulose p.o. and PBS s.c.), the compound alone in the dose of 10 mg/kg (p.o. plus vehicle PBS s.c), interferon-β alone in the dose of 1×10^6 Units/rat (s.c. plus methyl cellulose p.o.) or example 7 in the dose of 10 mg/kg (p.o) combined with interferon-β in the dose of 1×10^6 Units/rat (s.c.).

male mice of ddy strain = assay: Anticonvulsant action induced by AMPA (Test Example 2); format: in vivo; settings: 25 mg/kg orally, AMPA 2 nmole/5 μl/minute/mouse into lateral ventricle 30 minutes or 1 hour after dosing
Procedure: A test compound was suspended in a 0.5% methyl cellulose solution or in sesame oil and was orally administered (25 mg/kg) to male mice of ddy strain. After 30 minutes or 1 hour from the oral administration, AMPA was continuously injected (2 nmole/5 μl/minute/mouse) into lateral ventricle to induce the convulsions. The effect was judged by a time-extending action until the convulsion takes place by a continuous injection of AMPA.

Female Lewis rats = assay: Experimental autoimmune encephalomyelitis model (Test Example 10); format: in vivo, rat; settings: p.o. 5, 10 and 20 mg/kg, 10-16 dpi
Procedure: Female Lewis rats (205±10 g) obtained from Charles River, Kent UK, were housed in pairs under environmentally controlled conditions (6:00a.m.-6:00p.m. light/dark cycle; 22-24° C.; 45-55% humidity) and allowed free access to food and water. Experimental groups consisted of 9-12 animals. Rats were immunised in each hind foot with 20-50 μl of inoculum containing 50 μg guinea pig myelin basic protein (MBP; final concentration 2 mg/ml), emulsified in Freund's complete adjuvant (CFA; Sigma, UK) containing Mycobacterium tuberculosis H37Ra (final concentration 5.5 mg/ml; Difco Laboratories, UK). Animals were weighed and monitored daily and clinical disease scored as (0) no clinical signs; (1) flaccid tail and weight loss; (2) hind limb hypotonia with further weight loss; (3) complete hind limb paralysis; (4) paraplegia and (5) death. […] During the period of compound administration (10-16 days post immunisation; dpi) animals were scored 15 h after injection of vehicle or compound to avoid any acute effect of treatment on disease score. Compounds were dissolved/suspended in 0.5% methyl cellulose using a hand held Polytron homogeniser (PT1200; 2 min). Rats were dosed p.o. with either methyl cellulose vehicle (2.5 ml/kg) or compound at 5, 10 and 20 mg/kg.

[1] = primary culture of rat embryo cerebral cortex nerve cells, Fura2-AM, 2 μM AMPA, 1 μM MK-801
[2] = suppression of AMPA-induced calcium influx into nerve cells, Table 2
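Wherever pIC50 is given: neurons cultured at least 8 to 10 days atop an astrocyte layer in 96-well plates, calcium entry read as the change in Fura2 fluorescence ratio at 340/380 nm excitation.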

Procedure for AMPA receptor: Cerebral cortex was cut out from the brain of rat of gestational 18 days and treated with trypsin and DNase to disperse the cells. The cells were flown by MEM containing 10% of serum, sown in a culture bottle and astrocytes were proliferated. The astrocytes were re-dispersed by trypsin and sown in a 96-well plate. After incubation for one week, it was confirmed that the astrocytes covered all over the bottom and then the nerve cells of cerebral cortex which was dispersed by the above method were sown thereupon. After incubation for 24 hours, the medium was changed, the incubation was carried out for one week and, after that, the medium was changed to that containing 1 μM of MK-801. Nerve cells which were incubated for not shorter than 8 to 10 days were used.
Calcium influx into the cells was measured using Fura2-AM which was a calcium-sensitive fluorescent dye. It was treated in a medium containing Fura2-AM for 1 hour, incorporated into the cells, exchanged to a Tyrode solution containing 1 μM MK-801 and stimulation was carried out using 2 μM AMPA. Change in the amount of calcium flown into the cells were measured as the change in the fluorescent intensity at the exciting wave length of 340/380 nm.

Structure (SMILES) | Anticonvulsant action (time-extending action until convulsion by continuous AMPA injection) (male mice of ddy strain) | Effect on EAE vs vehicle-administered group (Female Lewis rats) | pIC50 (AMPA receptor; [1]) | other results
N#Cc1ccccc1-c1cc(-c2ccccn2)cn(-c2ccccc2)c1=O [Example 7, 3-(2-Cyanophenyl)-1-phenyl-5-(2-pyridyl)-1,2-dihydropyridin-2-one] | significant anticonvulsant action | superior effect to the vehicle-administered group | 7.00 | Duration (days) (Lewis rats; mean and range, n=8): 3.0 (0-4) days; Onset (d.p.i.) (Lewis rats; mean and range, n=8 (n=1 for the combination)): 11.8 (11-15) d.p.i.; Effect on disease progression (paralysis, disease score, onset, duration) during EAE, in words (Lewis rats; n=8/group): significantly delayed disease onset, shortened disease duration and reduced peak and cumulative disease score; Peak Disease Score (Lewis rats; clinical score 0-5, mean and range, n=8): 1.8 (0-3); Cumulative Disease Score (Lewis rats; summation of individual daily disease scores, mean and range, n=8): 4.8 (0-10); Weight Loss (%) (Lewis rats; weight on 18 dpi as percent of maximum weight before disease onset, mean and range, n=8): 17 (10-23) %
N#Cc1ccccc1-c1cc(-c2ccccn2)cn(-c2cccc(N)c2)c1=O [Example 9, 3-(2-Cyanophenyl)-5-(2-pyridyl)-1-(3-aminophenyl)-1,2-dihydropyridin-2-one] | significant anticonvulsant action |  | 7.52 | 
CN(C)c1cccc(-n2cc(-c3ccccn3)cc(-c3ccccc3C#N)c2=O)c1 [Example 12, 3-(2-Cyanophenyl)-5-(2-pyridyl)-1-(3-dimethylaminophenyl)-1,2-dihydropyridin-2-one] | significant anticonvulsant action |  | 7.00 | 
N#Cc1ncccc1-c1cc(-c2ccccn2)cn(-c2ccccc2)c1=O [Example 16, 3-(2-Cyano-3-pyridyl)-5-(2-pyridyl)-1-phenyl-1,2-dihydropyridin-2-one] | significant anticonvulsant action |  | 7.00 | 
N#Cc1ccccc1-c1cc(-c2ccccn2)cn(-c2cccnc2)c1=O [Example 32, 3-(2-Cyanophenyl)-5-(2-pyridyl)-1-(3-pyridyl)-1,2-dihydropyridin-2-one] | significant anticonvulsant action | superior effect to the vehicle-administered group | 7.00 | 
N#Cc1ccccc1-c1cc(-c2ccccc2)cn(-c2ccccc2)c1=O [Example 41, 3-(2-Cyanophenyl)-1,5-diphenyl-1,2-dihydropyridin-2-one] | significant anticonvulsant action |  | 7.10 | 
O=c1c(-c2cccnc2F)cc(-c2ccccn2)cn1-c1ccccc1 [Example 76, 3-(2-Fluoro-3-pyridyl)-5-(2-pyridyl)-1-phenyl-1,2-dihydropyridin-2-one] | significant anticonvulsant action | superior effect to the vehicle-administered group |  | 
N#Cc1cccnc1-c1cc(-c2ccccn2)cn(-c2ccccc2)c1=O [Example 78, 3-(3-Cyano-2-pyridyl)-5-(2-pyridyl)-1-phenyl-1,2-dihydropyridin-2-one] | significant anticonvulsant action |  | 5.85 | 
N#Cc1ccccc1-c1cc(-c2ccccn2)cn(-c2ccc(F)cc2)c1=O [Example 91, 3-(2-Cyanophenyl)-5-(2-pyridyl)-1-(4-fluorophenyl)-1,2-dihydropyridin-2-one] | significant anticonvulsant action |  | 7.30 | 
N#Cc1sccc1-c1cc(-c2ccccn2)cn(-c2cccnc2)c1=O [Example 137, 3-(2-Cyanothiophen-3-yl)-5-(2-pyridyl)-1-(3-pyridyl)-1,2-dihydropyridin-2-one] | significant anticonvulsant action |  |  | 
O=c1c(-c2cccnc2F)cc(-c2ccccn2)cn1-c1cccnc1 [Example 139, 3-(2-Fluoro-3-pyridyl)-5-(2-pyridyl)-1-(3-pyridyl)-1,2-dihydropyridin-2-one] | significant anticonvulsant action | superior effect to the vehicle-administered group |  | 
N#Cc1ccccc1-c1cc(-c2ncccn2)cn(-c2ccccc2)c1=O [Example 164, 3-(2-Cyanophenyl)-1-phenyl-5-(2-pyrimidinyl)-1,2-dihydropyridin-2-one] | significant anticonvulsant action | superior effect to the vehicle-administered group |  | pIC50 (AMPA receptor; [2]): 7.10
N#Cc1ccccc1-c1cc(-c2cnccn2)cn(-c2ccccc2)c1=O [Example 199, 3-(2-Cyanophenyl)-1-phenyl-5-(2-pyrazinyl)-1,2-dihydropyridin-2-one] | significant anticonvulsant action |  |  | 
N#Cc1ccccc1-c1cc(-c2ncccn2)cn(-c2cccnc2)c1=O [Example 261, 3-(2-Cyanophenyl)-1-(3-pyridyl)-5-(2-pyrimidinyl)-1,2-dihydropyridin-2-one] | significant anticonvulsant action | superior effect to the vehicle-administered group |  | 
O=c1c(-c2cccnc2F)cc(-c2ncccn2)cn1-c1ccccc1 [Example 262, 3-(2-Fluoropyridin-3-yl)-1-phenyl-5-(2-pyrimidinyl)-1,2-dihydropyridin-2-one] | significant anticonvulsant action | superior effect to the vehicle-administered group |  | pIC50 (AMPA receptor; [2]): 6.52
N#Cc1ncccc1-c1cc(-c2ncccn2)cn(-c2ccccc2)c1=O [Example 264, 3-(2-Cyanopyridin-3-yl)-1-phenyl-5-(2-pyrimidyl)-1,2-dihydropyridin-2-one] | significant anticonvulsant action | superior effect to the vehicle-administered group |  | 
O=c1c(-c2ccccc2[N+](=O)[O-])cc(-c2ccccn2)cn1-c1ccccc1 [Example 270, 3-(2-Nitrophenyl)-1-phenyl-5-(2-pyridyl)-1,2-dihydropyridin-2-one] | significant anticonvulsant action |  |  | 
N#Cc1ccccc1-c1cc(-c2cccc(N)n2)cn(-c2ccccc2)c1=O [Example 298, 5-(2-Aminopyridin-6-yl)-3-(2-cyanophenyl)-1-phenyl-1,2-dihydropyridin-2-one] | significant anticonvulsant action |  |  | 
